PMC12142043, “Cell-based high-content approach for SARS-CoV-2 neutralization identifies unique monoclonal antibodies and PI3K pathway inhibitors” (Frontiers in Cell and Developmental Biology, 2025)
Structures can show the parent of a compound that is named as a salt.

System: SARS-CoV-2 (USA-WA1/2020) in Calu-3 cells
Assay type: cell-based
Conditions: Calu-3, 48 h; for dsRNA signal, AU High: high dose (10 µM); for dsRNA signal, AU Low: low dose (100 nM)

FC(F)(F)c1ccc(CNc2ccc(Cc3c[nH]c4ncccc34)cn2)cc1 [PLX647]
dsRNA signal, AU High: 24285.0 AU | dsRNA signal, AU Low: 52941.2 AU

CC(C)(C)c1cc(C=C(C#N)C#N)cc(Br)c1O [AG-1024]
dsRNA signal, AU High: 1211.9 AU | dsRNA signal, AU Low: 44737.5 AU

O=C(Nc1cccc(Cl)c1)Nc1ncc(CCNc2ncnc3ccsc23)s1 [SNS-314 Mesylate]
dsRNA signal, AU High: 5716.5 AU | dsRNA signal, AU Low: 33317.4 AU

NC(=O)c1cccc(-c2cc(Nc3ccc(OC(F)(F)F)cc3)ncn2)c1 [GNF 2]
dsRNA signal, AU High: 2578.1 AU | dsRNA signal, AU Low: 60765.8 AU

c1ccc(-c2nn3c(c2-c2ccnc4cc(OCCN5CCOCC5)ccc24)CCC3)nc1 [LY2109761]
dsRNA signal, AU High: 9694.6 AU | dsRNA signal, AU Low: 5823.5 AU

Cc1noc(C)c1-c1ccc(-c2cc(C(N)=O)c(NC(N)=O)s2)c(O[C@H]2CCNC2)c1 [AZD3264]
dsRNA signal, AU High: 223.2 AU | dsRNA signal, AU Low: 47155.4 AU

COCC(=O)NC/C=C/c1ccc2ncnc(Nc3ccc(Oc4ccc(C)nc4)c(C)c3)c2c1 [CP-724714]
dsRNA signal, AU High: 1118.3 AU | dsRNA signal, AU Low: 29983.8 AU

CC(C)=CCC[C@](C)(O)[C@H]1CC[C@]2(C)[C@@H]1[C@H](O)C[C@@H]1[C@@]3(C)CC[C@H](O[C@@H]4O[C@H](CO)[C@@H](O)[C@H](O)[C@H]4O)C(C)(C)[C@@H]3CC[C@]12C [Ginsenoside Rh2]
dsRNA signal, AU High: 41827.1 AU | dsRNA signal, AU Low: 30569.1 AU

NC(=O)c1ccc(-c2nc(-c3ccc4c(c3)OCCO4)c(-c3ccccn3)[nH]2)cc1 [D4476]
dsRNA signal, AU High: 6178.6 AU | dsRNA signal, AU Low: 10405.5 AU

Cl.Cl.c1cc(-c2cnn3cc(-c4ccc(OCCN5CCCCC5)cc4)cnc23)ccn1 [Dorsomorphin 2HCl]
dsRNA signal, AU High: 1809.4 AU | dsRNA signal, AU Low: 18817.3 AU

CC(C)n1c(=O)n(C)c2cnc3cc(F)c(-c4ccc(OCCCN5CCCCC5)nc4)cc3c21 [AZD1390]
dsRNA signal, AU High: 7959.8 AU | dsRNA signal, AU Low: 37767.2 AU

NC(=O)c1ccc2nc(-c3ccc(Oc4ccc(Cl)cc4)cc3)[nH]c2c1 [BML-277]
dsRNA signal, AU High: 33021.5 AU | dsRNA signal, AU Low: 13488.9 AU

O=C(Nc1nc2ccc(NC(=O)C34CC5CC(CC(C5)C3)C4)cc2s1)c1ccccc1 [NVP 231]
dsRNA signal, AU High: 1973.6 AU | dsRNA signal, AU Low: 14037.2 AU

Telatinib (BAY 57-9352)
dsRNA signal, AU High: 46565.4 AU | dsRNA signal, AU Low: 19646.6 AU

CCc1ccc(C(=O)COc2ccc(CC3SC(=O)NC3=O)cc2)nc1 (stereo not shown) [MSDC-0160]
dsRNA signal, AU High: 16528.8 AU | dsRNA signal, AU Low: 15455.5 AU

Nc1nccc(-c2c(-c3ccc(F)cc3)ncn2C2CCCCC2)n1 [PF-670462]
dsRNA signal, AU High: 1350.7 AU | dsRNA signal, AU Low: 18716.0 AU

CN1CCN(c2nc(C3=C(c4c[nH]c5ccccc45)C(=O)NC3=O)c3ccccc3n2)CC1 [Sotrastaurin (AEB071)]
dsRNA signal, AU High: 6965.2 AU | dsRNA signal, AU Low: 40818.2 AU

CC1(C)OC(=O)C=C[C@]2(C)[C@H]3CC[C@@]4(C)[C@H](c5ccoc5)OC(=O)[C@H]5O[C@]54[C@]3(C)C(=O)C[C@@H]12 [Obacunone]
dsRNA signal, AU High: 22534.9 AU | dsRNA signal, AU Low: 63087.7 AU

CN1CCN(C2CCN(C(=O)Nc3cc(Oc4ccc(NC(=O)C5(C(=O)Nc6ccc(F)cc6)CC5)c(F)c4)ccn3)CC2)CC1 [Golvatinib (E7050)]
dsRNA signal, AU High: 36777.1 AU | dsRNA signal, AU Low: 23267.5 AU

COc1nccc(-c2c(-c3ccc(F)cc3)ncn2C2CCC(O)CC2)n1 (stereo not shown) [SB 239063]
dsRNA signal, AU High: 16458.2 AU | dsRNA signal, AU Low: 15855.6 AU

C[n+]1cc2c3c(ccc2c2ccc4cc5c(cc4c21)OCO5)OCO3 [Sanguinarine chloride]
dsRNA signal, AU High: 0.0 AU | dsRNA signal, AU Low: 15548.2 AU

Cl.O=S(=O)(c1cccc2c(I)cccc12)N1CCCNCC1 [ML-7 hydrochloride]
dsRNA signal, AU High: 19324.6 AU | dsRNA signal, AU Low: 18346.9 AU

Cl.Nc1cc(C(F)(F)F)c(-c2cc(N3CCOCC3)nc(N3CCOCC3)n2)cn1 [NVP-BKM120 Hydrochloride]
dsRNA signal, AU High: 0.0 AU | dsRNA signal, AU Low: 56514.5 AU

COc1ccc2c(c1)[nH]c1c(C)nccc12 [Harmine hydrochloride]
dsRNA signal, AU High: 0.0 AU | dsRNA signal, AU Low: 53937.1 AU

HG-10-102-01
dsRNA signal, AU High: 14367.4 AU | dsRNA signal, AU Low: 32713.5 AU

CN1CCN(S(=O)(=O)c2ccc(-c3cnc(N)c(C(=O)Nc4cccnc4)n3)cc2)CC1 [AZD2858]
dsRNA signal, AU High: 10014.5 AU | dsRNA signal, AU Low: 6684.6 AU

c1cncc(CN2CCC(n3ncc4c(N5CCOCC5)nc(-c5ccc6[nH]ccc6c5)nc43)CC2)c1 [WAY-600]
dsRNA signal, AU High: 1003.4 AU | dsRNA signal, AU Low: 67106.4 AU

O=C(O)C(Cc1ccccc1[N+](=O)[O-])=NNc1nc(-c2ccc(Cl)c(Cl)c2)cs1 (mixture of isomers) [4EGI-1]
dsRNA signal, AU High: 27081.3 AU | dsRNA signal, AU Low: 17726.3 AU

Oc1ccc(-c2nc(-c3ccc(F)cc3)c(-c3ccncc3)[nH]2)cc1 [SB202190 (FHPI)]
dsRNA signal, AU High: 29217.1 AU | dsRNA signal, AU Low: 9508.1 AU

O=C(Nc1cc(C(F)(F)F)ccc1N1CCCCC1)c1ccncc1 [SRPIN340]
dsRNA signal, AU High: 38969.9 AU | dsRNA signal, AU Low: 6071.8 AU

OCC1OC(O)CC(O)C1O [2-Deoxy-D-glucose]
dsRNA signal, AU High: 5572.7 AU | dsRNA signal, AU Low: 62378.7 AU

NCC(=O)Nc1ccc(-n2nc(C(F)(F)F)cc2-c2ccc3c(ccc4ccccc43)c2)cc1 [OSU-03012 (AR-12)]
dsRNA signal, AU High: 17565.3 AU | dsRNA signal, AU Low: 17813.3 AU

COc1ccc2c(c1)c(C1=C(c3c[nH]c4ccccc34)C(=O)NC1=O)cn2CCCN(C)C [Go 6983]
dsRNA signal, AU High: 52923.0 AU | dsRNA signal, AU Low: 26190.1 AU

OC[C@H]1O[C@@H](OCCc2ccc(O)cc2)[C@H](O)[C@@H](O)[C@@H]1O [Salidroside]
dsRNA signal, AU High: 19295.0 AU | dsRNA signal, AU Low: 56220.3 AU

OCCn1cc(-c2ccc3c(c2)CC/C3=N\O)c(-c2ccncc2)n1 [GDC-0879]
dsRNA signal, AU High: 7041.8 AU | dsRNA signal, AU Low: 38492.2 AU

O=C(/C=C/c1ccc(O)c(O)c1)c1ccc(O)cc1O [Butein]
dsRNA signal, AU High: 38311.3 AU | dsRNA signal, AU Low: 14009.4 AU

COc1cc(O)c2c(c1)oc(=O)c1c3cc(O)c(O)cc3oc21 [Wedelolactone]
dsRNA signal, AU High: 9001.4 AU | dsRNA signal, AU Low: 16105.5 AU

AG-18
dsRNA signal, AU High: 29672.3 AU | dsRNA signal, AU Low: 14434.9 AU

COc1c(C)c(C(=O)c2ccc(N)c(C(=O)[O-])c2)n2ccccc12.[Na+] [SSR128129E]
dsRNA signal, AU High: 4736.0 AU | dsRNA signal, AU Low: 27624.5 AU

COc1ccccc1-c1cc(Nc2cccc(CS(N)(=O)=O)c2)ncn1 [LDC000067]
dsRNA signal, AU High: 31035.0 AU | dsRNA signal, AU Low: 20712.1 AU

Cc1cc(=O)[nH]c(=S)[nH]1 [Methylthiouracil]
dsRNA signal, AU High: 61524.3 AU | dsRNA signal, AU Low: 55636.1 AU

O=C(NOCC(O)CO)c1cc(Br)c(F)c(F)c1Nc1ccc(I)cc1F (stereo not shown) [PD318088]
dsRNA signal, AU High: 9157.7 AU | dsRNA signal, AU Low: 11553.5 AU

CC(C)=CC[C@@H](O)C1=CC(=O)c2c(O)ccc(O)c2C1=O [Shikonin]
dsRNA signal, AU High: 54262.1 AU | dsRNA signal, AU Low: 4009.3 AU

KN-92
dsRNA signal, AU High: 8269.0 AU | dsRNA signal, AU Low: 30018.5 AU

CCOc1ccn(-c2ccc(F)cc2)c(=O)c1C(=O)Nc1ccc(Oc2ccnc(N)c2Cl)c(F)c1 [BMS-777607]
dsRNA signal, AU High: 39539.6 AU | dsRNA signal, AU Low: 18689.6 AU

O=C(O)[C@]1(Cc2cccc(Nc3nccs3)n2)CC[C@@H](Oc2cccc(Cl)c2F)CC1 [MK-5108 (VX-689)]
dsRNA signal, AU High: 3258.6 AU | dsRNA signal, AU Low: 34308.8 AU

CC1=CC(=O)C(C(C)C)=C/C1=N/OC(=O)c1ccccc1C [Poloxin]
dsRNA signal, AU High: 3268.7 AU | dsRNA signal, AU Low: 59035.4 AU

C[C@@H]1COCCN1c1cc(=O)n2c(n1)N(Cc1cncc(Cl)c1)[C@H](C(F)(F)F)CC2 [SAR405]
dsRNA signal, AU High: 1587.9 AU | dsRNA signal, AU Low: 23454.9 AU

O=c1oc2c(O)c(O)cc3c(=O)oc4c(O)c(O)cc1c4c23 [Ellagic acid]
dsRNA signal, AU High: 14274.7 AU | dsRNA signal, AU Low: 14007.9 AU

O=C(O)CCC(=O)Nc1ccc(Br)cn1 [Bikinin]
dsRNA signal, AU High: 39833.6 AU | dsRNA signal, AU Low: 44813.6 AU

NC(=O)c1ncn([C@@H]2O[C@H](CO)[C@@H](O)[C@H]2O)c1N [AICAR]
dsRNA signal, AU High: 10649.1 AU | dsRNA signal, AU Low: 34470.9 AU

CN1CCN(Cc2ccc(-c3cnc4[nH]cc(-c5ccc6[nH]ccc6c5)c4c3)cc2)CC1 [URMC-099]
dsRNA signal, AU High: 20784.2 AU | dsRNA signal, AU Low: 7905.7 AU

O=C(COc1ccc(Cl)cc1)NC1CCC(NC(=O)COc2ccc(Cl)cc2)CC1 (single isomer, unassigned) [ISRIB (trans-isomer)]
dsRNA signal, AU High: 6980.3 AU | dsRNA signal, AU Low: 60689.2 AU

O=C(Nc1nccs1)C(c1cc(F)ccc1O)N1Cc2ccccc2C1=O (stereo not shown) [EAI045]
dsRNA signal, AU High: 0.0 AU | dsRNA signal, AU Low: 14269.6 AU

C[C@@H]1COCCN1c1cc(C2([S@](C)(=N)=O)CC2)nc(-c2cc[nH]c3nccc2-3)n1 [AZD6738]
dsRNA signal, AU High: 290.6 AU | dsRNA signal, AU Low: 16844.7 AU

CO[C@H]1CC[C@H](N2C(=O)CNc3ncc(-c4ccc(C(C)(C)O)nc4)nc32)CC1 [CC-223]
dsRNA signal, AU High: 6587.4 AU | dsRNA signal, AU Low: 41988.9 AU

CCN(CCO)CCCOc1ccc2c(Nc3cc(CC(=O)Nc4cccc(F)c4)[nH]n3)ncnc2c1 [Barasertib (AZD1152-HQPA)]
dsRNA signal, AU High: 48647.4 AU | dsRNA signal, AU Low: 41038.0 AU

N#CC(c1ccnc(NCCc2cccnc2)n1)c1nc2ccccc2s1 (stereo not shown) [AS601245]
dsRNA signal, AU High: 18398.2 AU | dsRNA signal, AU Low: 6237.2 AU

Cn1cc(/C=C2\C(=O)Nc3cccnc32)c2ccccc21 [GW441756]
dsRNA signal, AU High: 33214.4 AU | dsRNA signal, AU Low: 18067.5 AU
